# Read-outs that look alike come from different tables or passages of the source. Square brackets hold non-standard residues; d marks the D form. Ends that are not written are not given here. Peptide text beside a SMILES is read from it. dPhe(4-Cl) = N[C@H](Cc1ccc(Cl)cc1)C(=O)O; d2Nal = N[C@H](Cc1ccc2ccccc2c1)C(=O)O; Hyp = O=C(O)[C@@H]1C[C@@H](O)CN1; 2Thi = N[C@@H](Cc1cccs1)C(=O)O; d2Thi = N[C@H](Cc1cccs1)C(=O)O
# Assays:
# [1] = tested on: isolated rat uterus; assay type: cell-based; conditions: for pA2 /RUT: activity class: not quantitated
# Summary of the method: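 Antagonism of bradykinin-induced contraction in isolated rat uterus (natural or induced estrus) and guinea pig ileum. Antagonist preincubated 30 s before a double-ED50 bradykinin dose, with the dose raised until the response fell to that of a single ED50. pA2 is the negative log molar antagonist concentration achieving this (Schild method).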
# [2] = tested on: isolated guinea pig ileum; assay type: cell-based; parameters: pA2 /GPI: activity class: scale not given here; conditions: isolated guinea pig ileum; for pA2 /GPI: activity class: not quantitated; for pA2 /GPI (antagonist potency): number of tissues in parentheses
# Procedure: The bradykinin antagonists were assayed on isolated rat uterus in natural or induced estrus and on guinea pig ileum, according to the commonly accepted assay methods for bradykinin and related kinins as described by Trautschold (Handbook of Expt. Pharmacol. Vol 25, Springer Verlag, pp. 53-55, 1970) for inhibition of the myotropic activity of bradykinin. The inhibition potencies, as determined according to the commonly accepted manner described by Schild for antagonists of biologically active compounds (Br. J. Pharmacol. 2:189, 1947), and expressed as pA2 values are determined on isolated rat uterus (RUT) and isolated guinea pig ileum (GPI). In the assays, a dose-response curve is determined for the reference substance bradykinin. The dose of bradykinin which produced a half maximal contraction of tissue is the ED50 dose. An amount of bradykinin equivalent to twice the ED50 dose is administered to the tissue 30 seconds after the start of incubation of the tissue with a dose of antagonist. Doses of antagonist are increased in this protocol until pre-incubation with a dose of antagonist reduces the contraction in response to the double ED50 dose of bradykinin to response of a single ED50 dose of bradykinin. The pA2 value represents the negative logarithm of the molar concentration of antagonist necessary to reduce the response of a double ED50 dose of bradykinin to that of an ED50 dose. One unit of pA2 value represents an order of magnitude change in potency. For comparison, the negative log of the dose of BK, the dose which causes half maximal contraction of the tissues, is commonly known as the pD2 value. The pD2 value for bradykinin is 7.9 on the rat uterus and 7.4 on the guinea pig ileum.
# [3] = tested on: rat blood pressure; experiment: effects on blood pressure in the anesthetized rat (RBP), intraaortic and intravenous bolus; assay type: in vivo; parameters: RBP-IA: activity class / RBP-IV: activity class: scale not given here
# Procedure: The in vivo effects of bradykinin antagonists on blood pressure in the anesthetized rat are determined according to the assay described by Roblero, Ryan and Stewart (Res. Commun. Pathol. Pharmacol. 6:207, 1973). The antagonists also produce inhibition of the bradykinin response when injected as a bolus admixture of bradykinin plus antagonist by either the ia or iv route of administration.
# [4] = rat blood pressure, intraaortic bolus
# [5] = rat blood pressure, intravenous bolus
molecule,measurement,setting,value
"N=C(N)NCCC[C@@H](N)C(=O)N[C@H](Cc1ccc2ccccc2c1)C(=O)N1CCC[C@H]1C(=O)N1CCC[C@H]1C(=O)NCC(=O)N[C@@H](Cc1ccccc1)C(=O)N[C@@H](CO)C(=O)N[C@H](Cc1cccs1)C(=O)N[C@@H](Cc1ccccc1)C(=O)N[C@@H](CCCNC(=N)N)C(=O)O [Example 39, DArg-DNal-Pro-Pro-Gly-Phe-Ser-DThi-Phe-Arg] (H-[dR][d2Nal]PPGFS[d2Thi]FR-OH)",pA2 /RUT (antagonist potency),[1],5.6
same,pA2 /GPI: activity class,[2],0
same,RBP-IA: activity class,[3]; [4],0
same,RBP-IV: activity class,[3]; [5],0
"N=C(N)NCCC[C@H](N)C(=O)N1CCC[C@H]1C(=O)N1CCC[C@H]1C(=O)NCC(=O)N[C@@H](Cc1cccs1)C(=O)N[C@@H](CO)C(=O)N[C@H](Cc1ccccc1)C(=O)N[C@@H](Cc1cccs1)C(=O)N[C@H](CCCNC(=N)N)C(=O)O [Example 41, Arg-Pro-Pro-Gly-Thi-Ser-DPhe-Thi-DArg] (H-RPPG[2Thi]S[dF][2Thi][dR]-OH)",pA2 /RUT: agonist potency as percent of BK potency,[1],0.01%
same,pA2 /GPI: activity class,[2],0
same,% DESTR (metabolic breakdown of BK-like agonists in RBP assay),"[3]; rat, in vivo",77%
same,RBP-IA: agonist potency as percent of BK potency,"[3]; rat, in vivo",0.1%
same,RBP-IV: agonist potency as percent of BK potency,"[3]; rat, in vivo, iv",0.6%
"CC(C)[C@@H](N)C(=O)N1CCC[C@H]1C(=O)N1C[C@H](O)C[C@H]1C(=O)NCC(=O)N[C@@H](Cc1ccccc1)C(=O)N[C@@H](CO)C(=O)N[C@H](Cc1ccccc1)C(=O)N[C@@H](Cc1ccccc1)C(=O)N[C@@H](CCCNC(=N)N)C(=O)O [Example 15, DVal-Pro-Hyp-Gly-Phe-Ser-DPhe-Phe-Arg] (H-[dV]P[Hyp]GFS[dF]FR-OH)",pA2 /RUT: activity class,[1]; isolated rat uterus,0
same,pA2 /GPI: activity class,[2],0
same,RBP-IA: activity class,[3]; [4],0
same,RBP-IV: activity class,[3]; [5],0
"RPPGFSPFRIY [Example 59, Arg-Pro-Pro-Gly-Phe-Ser-Pro-Phe-Arg-Ile-Tyr]",pA2 /RUT: agonist potency as percent of BK potency,[1]; isolated rat uterus,26%
same,pA2 /GPI: agonist potency as percent of BK potency,[2],21%
same,RBP-IA: agonist potency as percent of BK potency,[3]; [4],6%
same,RBP-IV: agonist potency as percent of BK potency,[3]; [5],103%
same,% DESTR (metabolic breakdown of BK-like agonists in RBP assay),[3]; relative to BK = 100%,61%
"N=C(N)NCCC[C@H](NC(=O)[C@H](Cc1ccccc1)NC(=O)[C@@H](Cc1ccccc1)NC(=O)[C@H](CO)NC(=O)[C@H](Cc1ccccc1)NC(=O)CNC(=O)[C@@H]1C[C@@H](O)CN1C(=O)[C@@H]1CCCN1C(=O)[C@H](N)Cc1ccc2ccccc2c1)C(=O)O [Example 30, DNa]-Pro-Hyp-Gly-Phe-Ser-DPhe-Phe-Arg] (H-[d2Nal]P[Hyp]GFS[dF]FR-OH)",pA2 /RUT: activity class,[1]; isolated rat uterus,0
same,pA2 /GPI: agonist potency as percent of BK potency,[2],0.1%
same,RBP-IA: activity class,[3]; [4],0
same,RBP-IV: activity class,[3]; [5],0
"CC[C@H](C)[C@H](NC(=O)[C@H](CCCNC(=N)N)NC(=O)[C@H](Cc1cccs1)NC(=O)[C@@H](Cc1ccccc1)NC(=O)[C@H](CO)NC(=O)[C@H](Cc1cccs1)NC(=O)CNC(=O)[C@@H]1C[C@@H](O)CN1C(=O)[C@@H]1CCCN1C(=O)[C@H](CCCNC(=N)N)NC(=O)[C@H](N)CCCNC(=N)N)C(=O)N[C@@H](Cc1ccc(O)cc1)C(=O)O [Example 68, DArg-Arg-Pro-Hyp-Gly-Thi-Ser-DPhe-Thi-Arg-Ile-Tyr] (H-[dR]RP[Hyp]G[2Thi]S[dF][2Thi]RIY-OH)",pA2 /RUT: agonist potency as percent of BK potency,[1],0.02%
same,pA2 /GPI (antagonist potency),[2],6.7
same,RBP-IA: agonist potency as percent of BK potency,"[3]; rat, in vivo",7%
"CC[C@H](C)[C@H](NC(=O)[C@H](CCCNC(=N)N)NC(=O)[C@H](Cc1ccccc1)NC(=O)[C@@H](Cc1ccccc1)NC(=O)[C@H](CO)NC(=O)[C@H](Cc1ccccc1)NC(=O)CNC(=O)[C@@H]1CCCN1C(=O)[C@@H]1CCCN1C(=O)[C@H](CCCNC(=N)N)NC(=O)[C@H](N)CCCNC(=N)N)C(=O)N[C@@H](Cc1ccc(O)cc1)C(=O)O [Example 64, DArg-Arg-Pro-Pro-Gly-Phe-Ser-DPhe-Phe-Arg-Ile-Tyr] (H-[dR]RPPGFS[dF]FRIY-OH)",pA2 /RUT: agonist potency as percent of BK potency,[1]; isolated rat uterus,0.7%
same,pA2 /GPI (antagonist potency),[2],6.2
"N=C(N)NCCC[C@@H](N)C(=O)N[C@H](Cc1ccc2ccccc2c1)C(=O)N1CCC[C@H]1C(=O)N1C[C@H](O)C[C@H]1C(=O)NCC(=O)N[C@@H](Cc1ccccc1)C(=O)N[C@@H](CO)C(=O)N[C@H](Cc1cccs1)C(=O)N[C@@H](Cc1ccccc1)C(=O)N[C@@H](CCCNC(=N)N)C(=O)O [Example 40, DArg-DNal-Pro-Hyp-Gly-Phe-Ser-DThi-Phe-Arg] (H-[dR][d2Nal]P[Hyp]GFS[d2Thi]FR-OH)",pA2 /RUT (antagonist potency),[1],5.6
same,pA2 /GPI: activity class,[2],0
"N=C(N)NCCC[C@@H](N)C(=O)N[C@@H](CCCNC(=N)N)C(=O)N1CCC[C@H]1C(=O)N1CCC[C@H]1C(=O)NCC(=O)N[C@@H](Cc1cccs1)C(=O)N[C@@H](CO)C(=O)N[C@H](Cc1ccccc1)C(=O)N[C@@H](Cc1cccs1)C(=O)N[C@H](CCCNC(=N)N)C(=O)O [Example 43, DArg-Arg-Pro-Pro-Gly-Thi-Ser-DPhe-Thi-DArg] (H-[dR]RPPG[2Thi]S[dF][2Thi][dR]-OH)",pA2 /RUT: activity class,[1]; isolated rat uterus,0
same,pA2 /GPI: activity class,[2],0
"N=C(N)NCCC[C@H](NC(=O)[C@H](Cc1ccccc1)NC(=O)[C@@H](Cc1ccccc1)NC(=O)[C@H](CO)NC(=O)[C@H](Cc1ccccc1)NC(=O)CNC(=O)[C@@H]1CCCN1C(=O)[C@@H]1CCCN1C(=O)[C@H](N)Cc1ccc2ccccc2c1)C(=O)O [Example 29, DNal-Pro-Pro-Gly-Phe-Ser-DPhe-Phe-Arg] (H-[d2Nal]PPGFS[dF]FR-OH)",pA2 /RUT (antagonist potency),[1],5.4
same,pA2 /GPI: activity class,[2],0
"N=C(N)NCCC[C@H](NC(=O)[C@H](Cc1ccccc1)NC(=O)[C@@H](Cc1cccs1)NC(=O)[C@H](CO)NC(=O)[C@H](Cc1ccccc1)NC(=O)CNC(=O)[C@@H]1CCCN1C(=O)[C@@H]1CCCN1C(=O)[C@H](N)Cc1ccc2ccccc2c1)C(=O)O [Example 37, DNal-Pro-Pro-Gly-Phe-Ser-DThi-Phe-Arg] (H-[d2Nal]PPGFS[d2Thi]FR-OH)",pA2 /RUT: activity class,[1]; isolated rat uterus,0
same,pA2 /GPI: activity class,[2],0
"N=C(N)NCCC[C@H](NC(=O)[C@H](Cc1cccs1)NC(=O)[C@@H](Cc1ccccc1)NC(=O)[C@H](CO)NC(=O)[C@H](Cc1cccs1)NC(=O)CNC(=O)[C@@H]1CCCN1C(=O)[C@@H]1CCCN1C(=O)[C@H](N)Cc1ccccc1)C(=O)O [Example 19, DPhe-Pro-Pro-Gly-Thi-Ser-DPhe-Thi-Arg] (H-[dF]PPG[2Thi]S[dF][2Thi]R-OH)",pA2 /RUT: activity class,[1]; isolated rat uterus,0
same,pA2 /GPI: activity class,[2],0
"N=C(N)NCCC[C@@H](N)C(=O)N1CCC[C@H]1C(=O)N1C[C@H](O)C[C@H]1C(=O)NCC(=O)N[C@@H](Cc1cccs1)C(=O)N[C@@H](CO)C(=O)N[C@H](Cc1ccccc1)C(=O)N[C@@H](Cc1cccs1)C(=O)N[C@@H](CCCNC(=N)N)C(=O)O [Example 8, DArg-Pro-Hyp-Gly-Thi-Ser-DPhe-Thi-Arg] (H-[dR]P[Hyp]G[2Thi]S[dF][2Thi]R-OH)",pA2 /RUT (antagonist potency),[1],5.4
same,pA2 /GPI (antagonist potency),[2],5.4
"N=C(N)NCCC[C@@H](N)C(=O)N[C@H](Cc1ccc(Cl)cc1)C(=O)N1CCC[C@H]1C(=O)N1C[C@H](O)C[C@H]1C(=O)NCC(=O)N[C@@H](Cc1ccccc1)C(=O)N[C@@H](CO)C(=O)N[C@H](Cc1ccccc1)C(=O)N[C@@H](Cc1ccccc1)C(=O)N[C@@H](CCCNC(=N)N)C(=O)O [Example 5, DArg-CDF-Pro-Hyp-Gly-Phe-Ser-DPhe-Phe-Arg] (H-[dR][dPhe(4-Cl)]P[Hyp]GFS[dF]FR-OH)",pA2 /RUT (antagonist potency),"[1]; isolated rat uterus, number of tissues in parentheses",5.8
same,pA2 /GPI: activity class,[2],0
